Results on 37 compounds are retold here after patent publication US8163906B2, “Dihydroquinone and dihydronaphthridine inhibitors of JNK” (Roche Palo Alto, LLC, priority 2007, dated 2012).

Sequence of Human JNK2α2 (P45984 whole entry): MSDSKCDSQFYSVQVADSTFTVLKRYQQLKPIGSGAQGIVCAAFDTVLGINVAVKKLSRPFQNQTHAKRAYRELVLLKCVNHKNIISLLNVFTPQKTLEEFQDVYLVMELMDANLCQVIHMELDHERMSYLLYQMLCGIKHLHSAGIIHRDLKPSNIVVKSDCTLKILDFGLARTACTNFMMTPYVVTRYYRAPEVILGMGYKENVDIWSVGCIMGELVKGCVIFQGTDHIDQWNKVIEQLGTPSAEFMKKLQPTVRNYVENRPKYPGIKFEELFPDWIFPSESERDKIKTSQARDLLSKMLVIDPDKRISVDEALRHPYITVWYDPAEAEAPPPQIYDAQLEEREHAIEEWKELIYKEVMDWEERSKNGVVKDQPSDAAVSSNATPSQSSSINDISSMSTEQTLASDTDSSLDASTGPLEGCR
Sequence of Human JNK1α1 (P45983 1-384 isoform P45983-2): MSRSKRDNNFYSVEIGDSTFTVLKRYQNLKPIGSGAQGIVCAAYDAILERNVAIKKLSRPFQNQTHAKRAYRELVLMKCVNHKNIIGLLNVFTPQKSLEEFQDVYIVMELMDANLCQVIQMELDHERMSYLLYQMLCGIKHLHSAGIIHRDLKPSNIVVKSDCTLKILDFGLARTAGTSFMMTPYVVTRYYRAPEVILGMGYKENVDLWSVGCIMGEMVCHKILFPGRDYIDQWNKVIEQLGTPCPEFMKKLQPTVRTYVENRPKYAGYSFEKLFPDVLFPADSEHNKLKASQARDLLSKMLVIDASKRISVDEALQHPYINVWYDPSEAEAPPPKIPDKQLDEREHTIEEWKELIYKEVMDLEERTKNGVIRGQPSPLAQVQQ

Test system in the first data set: not given
Test: not given
Conditions: not given
Broadly, the melting point is the temperature of the solid-liquid transition. `COC(=O)c1c(Cc2ccc(S(=O)(=O)N3CCNCC3)cc2)c(=O)c2ccc(F)cc2n1-c1ccccc1.Cl`: the melting point lay in the range of 214 to 215 °C.

For the compound `COC(=O)c1c(Cc2ccc(S(=O)(=O)N3CCNCC3(C)C)cc2)c(=O)c2ccc(F)cc2n1-c1ccccc1.Cl`, the melting point was 211 to 212 °C.

`COC(=O)c1c(Cc2ccc(Cl)nc2)c(=O)c2ccc(C)nc2n1-c1ccccc1` [Compound 83, 3-(6-chloro-pyridin-3-ylmethyl)-7-methyl-4-oxo-1-phenyl-1,4-dihydro[1,8]naphthyridine-2-carboxylic acid methyl ester] came in with a melting point of 220 to 220.5 °C.

`COC(=O)c1c(Cc2ccc(C(=O)CBr)cc2)c(=O)c2ccc(C)nc2n1-c1ccccc1` [Compound 89, 3-[4-(2-bromoacetyl)-benzyl]-7-methyl-4-oxo-1-phenyl-1,4-dihydro-[1,8]naphthyridine-2-carboxylic acid methyl ester] yielded a melting point of 189 to 191.1 °C.

In turn, `COC(=O)c1c(Cc2ccc(S(C)(=O)=O)nc2)c(=O)c2ccc(C)nc2n1-c1ccccc1` [Compound 92, 3-(6-Methanesulfonyl-pyridin-3-ylmethyl)-7-methyl-4-oxo-1-phenyl-1,4-dihydro[1,8]naphthyridine-2-carboxylic Acid Methyl Ester] showed a melting point of 217 to 218 °C.

`COC(=O)c1ccc(Cc2c(C(=O)OC)n(-c3ccccc3)c3nc(C)ccc3c2=O)cn1` [Compound 100, 3-(6-Methoxycarbonyl-pyridin-3-ylmethyl)-7-methyl-4-oxo-1-phenyl-1,4-dihydro[1,8]naphthyridine-2-carboxylic Acid Methyl Ester] displayed a melting point of 177 to 178 °C.

Compound `CCNC(=O)c1ccc(Cc2c(C(=O)OC)n(-c3ccccc3)c3nc(C)ccc3c2=O)cn1` [Compound 101, 3-(6-Ethylcarbamoyl-pyridin-3-ylmethyl)-7-methyl-4-oxo-1-phenyl-1,4-dihydro[1,8]naphthyridine-2-carboxylic Acid Methyl Ester] had a melting point of 208 to 209 °C.

Compound `COC(=O)c1c(Cc2ccc(OC)nc2)c(=O)c2ccc(C)nc2n1-c1ccccc1` [Compound 102, 3-(6-Methoxypyridin-3-ylmethyl)-7-methyl-4-oxo-1-phenyl-1,4-dihydro[1,8]naphthridine-2-carboxylic Acid Methyl Ester] registered a melting point of 176 to 177 °C.

`COC(=O)c1c(Cc2ccc(C(=O)N(C)C)nc2)c(=O)c2ccc(C)nc2n1-c1ccccc1` [Compound 103, 3-(6-Dimethylcarbamoyl-pyridin-3-ylmethyl)-7-methyl-4-oxo-1-phenyl-1,4-dihydro[1,8]naphthyridine-2-carboxylic Acid Methyl Ester] displayed a melting point of 235 to 236 °C.

`COC(=O)c1c(Cc2ccc(S(=O)(=O)N3CCN(C(=O)OC(C)(C)C)CC3)cc2)c(=O)c2ccc(F)cc2n1-c1ccccc1` [Compound 108]: the melting point lay in the range of 120 to 121 °C.

Compound `COC(=O)c1c(Cc2ccc(SCCO)cc2)c(=O)c2ccc(F)cc2n1-c1ccccc1` [Compound 111] came in with a melting point of 163 to 164 °C.

As to `COC(=O)c1c(Cc2ccc(S(=O)(=O)CCO)cc2)c(=O)c2ccc(F)cc2n1-c1ccccc1` [Compound 112], the melting point was 165 to 166 °C.

Consider `COC(=O)c1c(Cc2ccc(S(=O)(=O)N3CCN(C(=O)OC(C)(C)C)CC3(C)C)cc2)c(=O)c2ccc(F)cc2n1-c1ccccc1` [Compound 113], for which the melting point was 116 to 117 °C.

Take `COC(=O)c1c(Cc2ccc(S(C)(=O)=O)cc2)c(=O)c2ccc(C(F)(F)F)nc2n1-c1ccccc1` [Compound 115]: the melting point was in the range of 193 to 195 °C.

Consider `COC(=O)c1c(Cc2ccc(C(=O)NCCO)cc2)c(=O)c2ccc(C(F)(F)F)nc2n1-c1ccccc1` [Compound 116], for which the melting point was 170 to 173 °C.

`COC(=O)c1c(Cc2ccc(S(=O)(=O)C(C)CO)cc2)c(=O)c2ccc(F)cc2n1-c1ccccc1` (stereo not shown) [Compound 118] returned a melting point of 193.6 to 194.9 °C.

Compound `COC(=O)c1c(Cc2ccc(S(=O)(=O)C(C)CO)cc2)c(=O)c2ccc(C)nc2n1-c1ccccc1` (stereo not shown) [Compound 119] showed a melting point of 195.9 to 197.2 °C.

`COC(=O)c1c(Cc2ccccc2)c(=O)c2ccc(Cl)cc2n1-c1ccccc1` [Compound 120] showed a melting point of 200 to 201 °C.

On to `CCOC(=O)c1c(Cc2ccccc2)c(=O)c2ccc(Cl)cc2n1-c1ccccc1` [Compound 121], for which the melting point is 179 to 180 °C.

As to `COC(=O)c1c(CN2CCOCC2)c(=O)c2ccc(F)cc2n1-c1ccccc1` [Compound 123], the melting point lay within 169 to 170 °C.

`COC(=O)c1c(Cc2ccc(C#N)cc2)c(=O)c2ccc(F)cc2n1-c1ccccc1` [Compound 124]: the melting point was 218 to 219 °C.

Turning to `COC(=O)c1c(Cc2cnc(OC)nc2)c(=O)c2ccc(F)cc2n1-c1ccccc1` [Compound 125], the melting point lay in the range of 206 to 207 °C.

For the compound `COC(=O)c1c(CN2CCC(S(C)(=O)=O)CC2)c(=O)c2ccc(F)cc2n1-c1ccccc1` [Compound 126, 7-fluoro-3-(4-methanesulfonyl-piperidin-1-ylmethyl)-4-oxo-1-phenyl-1,4-dihydro-quinoline-2-carboxylic acid methyl ester], the melting point is 190 to 191 °C.

In the case of `COCCOC(=O)c1c(Cc2ccccc2)c(=O)c2ccc(F)cc2n1-c1ccccc1` [Compound 130, 3-Benzyl-7-fluoro-4-oxo-1-phenyl-1,4-dihydro-quinoline-2-carboxylic acid 2-methoxy-ethyl ester], the melting point lay within 168 to 169 °C.

`COC(=O)c1c(CN2CCN(S(C)(=O)=O)CC2)c(=O)c2ccc(F)cc2n1-c1ccccc1` [Compound 131]: the melting point lay in the range of 205 to 207 °C.

As to `COC(=O)c1c(CN2CCS(=O)(=O)CC2)c(=O)c2ccc(F)cc2n1-c1ccccc1` [Compound 132], the melting point fell in the range of 119 to 120 °C.

`CCOC(=O)C1CCN(Cc2c(C(=O)OC)n(-c3ccccc3)c3cc(F)ccc3c2=O)CC1` [Compound 133]: the melting point fell in the range of 136 to 137 °C.

For `COC(=O)c1c(CN2CCn3c(nnc3C(F)(F)F)C2)c(=O)c2ccc(F)cc2n1-c1ccccc1` [Compound 134], the melting point lay in the range of 107 to 110 °C.

`COC(=O)c1c(CN2CCC(C#N)CC2)c(=O)c2ccc(F)cc2n1-c1ccccc1` [Compound 136] gave a melting point of 159 to 160 °C.

`C=CCn1c(C(=O)OC)c(Cc2ccc(S(C)(=O)=O)cc2)c(=O)c2ccc(C)nc21` [Compound 139] showed a melting point of 168 to 169 °C.

`O=c1c(Cc2ccccc2)c(-c2ncco2)n(-c2ccccc2)c2cc(Cl)ccc12` [Compound 140, 3-benzyl-7-chloro-2-oxazol-2-yl-1-phenyl-1H-quinolin-4-one] displayed a melting point of 219 to 220 °C.

Another data set addresses Human JNK1α1 (Homo sapiens, UniProt P45983). Briefly: JNK assay in vitro, phosphorylation of GST-ATF2 with [γ-33P] ATP (JNK1). The class given is biochemical. As to conditions: ATP at Km (6 μM), 1 μM ATF2, 30° C. 30 min; read-out: IC50 vs. JNK1. The procedure: (§1) JNK activity was measured by phosphorylation of GST-ATF2 (19-96) with [γ-^33P] ATP. […] Human JNK2α2 assay contains 1 nM enzyme, 1 μM ATF2, 8 μM ATP with 1 uCi [γ-^33P] ATP. Human JNK1α1 assay contains 2 nM enzyme, 1 μM ATF2, 6 μM ATP with 1 μCi [γ-^33P] ATP. […] ATP. The enzyme assay was carried out in the presence or absence of several compound concentrations. JNK and compound were pre-incubated for 10 min., followed by initiation of the enzymatic reaction by adding ATP and the substrate. The reaction mixture was incubated at 30° C. for 30 min. […] The incorporation of ^33P into ATF2 was quantified on a microplate scintillation counter (Packard Topcount). Compound inhibition potency on JNK was measured by IC50 value generated from ten concentration inhibition curves fitted into the 3-parameter model: % inhibition=Maximum/(1+(IC50/[Inhibitor])^slope). Data were analyzed on Microsoft Excel for parameter estimation.
Broadly, the IC50 is the concentration at which inhibition is half-maximal. Regarding `COC(=O)c1c(Cc2ccc(S(=O)(=O)N3CCOCC3)cc2)c(=O)c2ccc(Cl)cc2n1-c1ccccc1` [Compound 31, 7-Chloro-3-[4-(morpholine-4-sulfonyl)-benzyl]-4-oxo-1-phenyl-1,4-dihydroquinoline-2-carboxylic acid methyl ester], the IC50 is 52.9 nM.

Consider `CNS(=O)(=O)c1ccc(Cc2c(C(=O)OC)n(-c3ccccc3)c3cc(Cl)ccc3c2=O)cc1` [Compound 44, 7-Chloro-3-(4-methylsulfamoyl-benzyl)-4-oxo-1-phenyl-1,4-dihydroquinoline-2-carboxylic acid methyl ester], for which the IC50 worked out at 49.1 nM.

`COC(=O)c1c(Cc2ccc(S(=O)(=O)NCC(O)CO)cc2)c(=O)c2ccc(Cl)cc2n1-c1ccccc1` (stereo not shown) [Compound 46, 7-chloro-3-[4-(2,3-dihydroxy-propylsulfamoyl)-benzyl]-4-oxo-1-phenyl-1,4-dihydroquinoline-2-carboxylic acid methyl ester]: the IC50 was determined as 45.4 nM.

As for `COC(=O)c1c(Cc2ccc(S(=O)(=O)N(C)CCO)cc2)c(=O)c2ccc(Cl)cc2n1-c1ccccc1` [Compound 59, 7-Chloro-3-{4-[(2-hydroxyethyl)-methyl-sulfamoyl]-benzyl}-4-oxo-1-phenyl-1,4-dihydroquinoline-2-carboxylic acid methyl ester], the concentration for half-maximal inhibition (IC50) amounted to 22.6 nM.

In the case of `COC(=O)c1c(Cc2ccc(S(=O)(=O)NCCO[Si](C)(C)C(C)(C)C)cc2)c(=O)c2ccc(Cl)cc2n1-c1ccccc1` [Compound 60, 3-{4-[2-(tert-Butyl-dimethyl-silanyloxy)-ethylsulfamoyl]-benzyl}-7-chloro-4-oxo-1-phenyl-1,4-dihydroquinoline-2-carboxylic acid methyl ester], the half-maximal inhibitory concentration (IC50) was determined as 1630 nM.

Consider `COC(=O)c1c(Cc2ccc(S(=O)(=O)N3CCN(C(=O)OC(C)(C)C)CC3)cc2)c(=O)c2ccc(Cl)cc2n1-c1ccccc1` [Compound 63, 3-[4-(4-tert-Butoxycarbonyl-piperazine-1-sulfonyl)-benzyl]-7-chloro-4-oxo-1-phenyl-1,4-dihydroquinoline-2-carboxylic acid methyl ester], for which the IC50 is 98.7 nM.

In another data set the target is Human JNK2α2 (Homo sapiens, UniProt P45984). Kind of data set: JNK assay in vitro, phosphorylation of GST-ATF2 with [γ-33P] ATP (JNK2). It counts as biochemical. The settings on record: ATP at Km (8 μM), 1 μM ATF2, 30° C. 30 min. On the procedure:
as §1
Turning to `COC(=O)c1c(Cc2ccc(S(=O)(=O)N3CCOCC3)cc2)c(=O)c2ccc(Cl)cc2n1-c1ccccc1` [Compound 31, 7-Chloro-3-[4-(morpholine-4-sulfonyl)-benzyl]-4-oxo-1-phenyl-1,4-dihydroquinoline-2-carboxylic acid methyl ester], the IC50 stood at 161 nM.

Consider `COC(=O)c1c(Cc2ccc(S(=O)(=O)NCC(O)CO)cc2)c(=O)c2ccc(Cl)cc2n1-c1ccccc1` (stereo not shown) [Compound 46, 7-chloro-3-[4-(2,3-dihydroxy-propylsulfamoyl)-benzyl]-4-oxo-1-phenyl-1,4-dihydroquinoline-2-carboxylic acid methyl ester], for which the IC50 came out at 137 nM.

Compound `COC(=O)c1c(Cc2ccc(S(=O)(=O)N(C)CCO)cc2)c(=O)c2ccc(Cl)cc2n1-c1ccccc1` [Compound 59, 7-Chloro-3-{4-[(2-hydroxyethyl)-methyl-sulfamoyl]-benzyl}-4-oxo-1-phenyl-1,4-dihydroquinoline-2-carboxylic acid methyl ester] came in with an IC50 of 61.4 nM.

Regarding `COC(=O)c1c(Cc2ccc(S(=O)(=O)NCCO[Si](C)(C)C(C)(C)C)cc2)c(=O)c2ccc(Cl)cc2n1-c1ccccc1` [Compound 60, 3-{4-[2-(tert-Butyl-dimethyl-silanyloxy)-ethylsulfamoyl]-benzyl}-7-chloro-4-oxo-1-phenyl-1,4-dihydroquinoline-2-carboxylic acid methyl ester], the concentration for half-maximal inhibition (IC50) came out at 4980 nM.

`COC(=O)c1c(Cc2ccc(S(=O)(=O)N3CCN(C(=O)OC(C)(C)C)CC3)cc2)c(=O)c2ccc(Cl)cc2n1-c1ccccc1` [Compound 63, 3-[4-(4-tert-Butoxycarbonyl-piperazine-1-sulfonyl)-benzyl]-7-chloro-4-oxo-1-phenyl-1,4-dihydroquinoline-2-carboxylic acid methyl ester] displayed an IC50 of 212 nM.

Compound `COC(=O)c1ccc(Cc2c(C(=O)OC)n(-c3ccccc3)c3nc(C)ccc3c2=O)cn1` [Compound 100, 3-(6-Methoxycarbonyl-pyridin-3-ylmethyl)-7-methyl-4-oxo-1-phenyl-1,4-dihydro[1,8]naphthyridine-2-carboxylic Acid Methyl Ester] registered an IC50 of 226 nM.
